Experimental findings from ChEMBL document CHEMBL4373715, “Discovery and Biological Evaluations of Halogenated 2,4-Diphenyl Indeno[1,2-b]pyridinol Derivatives as Potent Topoisomerase IIα-Targeted Chemotherapeutic Agents for Breast Cancer” (J Med Chem, 2019) are described below.

One assay deals with T47D. The experiment in a line: Antiproliferative activity against human T47D cells measured after 72 hrs by EZ-Cytox assay. The format is functional, cell-based.
A further assay relates to HCT-15. Description: Antiproliferative activity against human HCT15 cells measured after 72 hrs by EZ-Cytox assay. The format is functional, cell-based. Conditions: HCT-15, 72 h.
The target of assay [1] is T1, DNA topoisomerase 1 (Homo sapiens) (UniProt P11387).
T1 sequence (whole entry): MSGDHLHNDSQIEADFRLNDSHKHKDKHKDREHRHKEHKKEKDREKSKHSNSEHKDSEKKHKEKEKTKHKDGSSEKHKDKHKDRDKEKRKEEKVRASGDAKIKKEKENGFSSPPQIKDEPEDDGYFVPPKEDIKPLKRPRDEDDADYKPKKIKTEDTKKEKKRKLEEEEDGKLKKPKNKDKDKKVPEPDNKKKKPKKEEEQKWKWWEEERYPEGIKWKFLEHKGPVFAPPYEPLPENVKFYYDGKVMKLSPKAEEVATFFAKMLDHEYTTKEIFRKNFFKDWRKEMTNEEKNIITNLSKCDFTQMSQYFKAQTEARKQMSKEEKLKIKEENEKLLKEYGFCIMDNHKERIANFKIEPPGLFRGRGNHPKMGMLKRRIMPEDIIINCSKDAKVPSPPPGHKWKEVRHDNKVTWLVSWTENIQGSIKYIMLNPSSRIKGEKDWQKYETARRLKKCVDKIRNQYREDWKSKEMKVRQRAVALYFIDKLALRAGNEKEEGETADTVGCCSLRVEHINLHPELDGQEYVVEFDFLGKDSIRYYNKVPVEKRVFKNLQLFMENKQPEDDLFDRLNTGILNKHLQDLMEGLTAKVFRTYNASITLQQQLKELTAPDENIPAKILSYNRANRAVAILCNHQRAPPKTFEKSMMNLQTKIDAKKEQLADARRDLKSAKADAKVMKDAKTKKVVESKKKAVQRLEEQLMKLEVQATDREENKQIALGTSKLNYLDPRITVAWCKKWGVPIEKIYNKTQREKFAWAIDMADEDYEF
The experiment in a line: Inhibition of recombinant human topoisomerase 1-mediated relaxation of supercoiled pBR322 DNA at 100 uM measured after 30 mins by ethidium bromide staining based agarose gel electrophoresis relative to control.

Assay [2] addresses DNA topoisomerase 2-alpha (Homo sapiens) (UniProt P11388). Description: Inhibition of recombinant human topoisomerase 2alpha-mediated relaxation of supercoiled pBR322 DNA at 100 uM measured after 30 mins by ethidium bromide staining based agarose gel electrophoresis relative to control.
The target is the same in assay [3]. Description: Inhibition of recombinant human topoisomerase 2alpha-mediated relaxation of supercoiled pBR322 DNA at 20 uM measured after 30 mins by ethidium bromide staining based agarose gel electrophoresis relative to control.
The test system of the next assay is DU-145. The experiment in a line: Antiproliferative activity against human DU145 cells measured after 72 hrs by EZ-Cytox assay. The class given is functional, cell-based. Conditions: DU-145, 72 h.
Another assay deals with HeLa. The experiment in a line: Antiproliferative activity against human HeLa cells measured after 72 hrs by EZ-Cytox assay. The class given is functional, cell-based.

One may read the IC50 as the concentration at which inhibition is half-maximal. A low value points to greater potency in that assay. Broadly, the inhibition is the relative decrease from the control value, in per cent.

Sequence of DNA topoisomerase 2-alpha (Homo sapiens) (P11388 whole entry): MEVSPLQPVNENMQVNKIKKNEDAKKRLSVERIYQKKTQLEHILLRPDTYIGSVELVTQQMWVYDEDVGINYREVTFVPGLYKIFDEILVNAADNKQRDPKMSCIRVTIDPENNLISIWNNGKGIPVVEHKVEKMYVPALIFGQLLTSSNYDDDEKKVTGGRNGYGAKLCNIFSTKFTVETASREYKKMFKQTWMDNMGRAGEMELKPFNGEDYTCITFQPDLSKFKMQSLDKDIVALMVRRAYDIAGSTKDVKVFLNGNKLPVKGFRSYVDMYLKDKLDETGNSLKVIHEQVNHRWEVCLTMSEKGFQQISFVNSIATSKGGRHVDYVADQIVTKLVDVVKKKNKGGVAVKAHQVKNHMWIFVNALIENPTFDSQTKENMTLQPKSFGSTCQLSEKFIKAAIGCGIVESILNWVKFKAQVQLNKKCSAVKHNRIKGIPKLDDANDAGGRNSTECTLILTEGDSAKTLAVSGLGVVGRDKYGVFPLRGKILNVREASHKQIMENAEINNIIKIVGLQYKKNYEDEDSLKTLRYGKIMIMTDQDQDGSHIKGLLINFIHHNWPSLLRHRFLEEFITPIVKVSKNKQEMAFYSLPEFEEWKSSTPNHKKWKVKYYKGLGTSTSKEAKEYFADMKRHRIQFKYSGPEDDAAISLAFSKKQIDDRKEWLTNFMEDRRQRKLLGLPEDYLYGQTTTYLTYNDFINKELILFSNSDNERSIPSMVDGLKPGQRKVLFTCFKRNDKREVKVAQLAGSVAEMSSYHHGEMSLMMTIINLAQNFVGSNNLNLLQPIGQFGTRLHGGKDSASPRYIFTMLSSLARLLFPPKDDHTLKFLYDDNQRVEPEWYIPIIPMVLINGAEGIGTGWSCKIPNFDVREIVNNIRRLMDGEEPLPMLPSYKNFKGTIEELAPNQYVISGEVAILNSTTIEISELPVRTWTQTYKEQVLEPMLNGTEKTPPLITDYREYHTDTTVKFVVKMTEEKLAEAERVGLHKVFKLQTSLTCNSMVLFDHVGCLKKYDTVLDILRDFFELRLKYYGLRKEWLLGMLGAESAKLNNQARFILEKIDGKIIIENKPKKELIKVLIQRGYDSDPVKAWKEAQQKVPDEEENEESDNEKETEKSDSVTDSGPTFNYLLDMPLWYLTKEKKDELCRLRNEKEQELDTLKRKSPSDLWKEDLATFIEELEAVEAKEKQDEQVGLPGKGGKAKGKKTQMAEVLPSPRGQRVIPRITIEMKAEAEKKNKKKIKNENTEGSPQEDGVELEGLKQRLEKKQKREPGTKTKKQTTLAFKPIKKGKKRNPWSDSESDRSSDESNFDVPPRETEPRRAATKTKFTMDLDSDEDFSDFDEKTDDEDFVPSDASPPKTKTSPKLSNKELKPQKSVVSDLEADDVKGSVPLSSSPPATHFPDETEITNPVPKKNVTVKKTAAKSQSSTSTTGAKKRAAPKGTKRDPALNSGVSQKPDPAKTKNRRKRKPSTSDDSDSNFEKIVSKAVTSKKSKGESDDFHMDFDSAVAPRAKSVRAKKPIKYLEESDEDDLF

As to `Oc1cccc(-c2cc(-c3ccc(Cl)cc3)nc3c2Cc2cc(O)ccc2-3)c1`, the IC50 is 1500 nM in the assay on T47D, 850 nM in the assay on HCT-15, 1280 nM in the assay on DU-145 and 1090 nM with HeLa. Also, the figures for the inhibition in assay [1], in assay [2] and in assay [3] were 0%, 95% and 11.2%, respectively.
For `Oc1ccccc1-c1cc(-c2ccccc2)nc2c1Cc1c(O)cccc1-2`, the IC50 with T47D was found to be 2330 nM; in the assay with HCT-15, 3470 nM; in the assay on DU-145, 800 nM; with HeLa, 6320 nM. In addition, the values for the inhibition in assay [1], in assay [2] and in assay [3] were 0%, 78.5% and 0%, respectively.
Take `Oc1ccc(-c2cc(-c3ccccc3Cl)c3c(n2)-c2c(O)cccc2C3)cc1`: the 50% inhibitory concentration (IC50) was 960 nM in the assay on T47D, 1050 nM in the assay on HCT-15, 860 nM in the assay on DU-145 and 2790 nM in the assay on HeLa. Besides, the results for the inhibition in assay [1], in assay [2] and in assay [3] were 10.3%, 66.9% and 0.8%, respectively.
For `Oc1ccc2c(c1)-c1nc(-c3ccccc3C(F)(F)F)cc(-c3ccccc3O)c1C2`, the IC50 was found to be 1410 nM in the assay on T47D, 4040 nM with HCT-15, 2860 nM in the assay on DU-145 and 2960 nM in the assay with HeLa. In addition, the inhibition in assay [1] turned out to be 0.4%; in assay [2] it was 86.1%; in assay [3], 3.4%.
For `Oc1ccc2c(c1)Cc1c(-c3ccccc3O)cc(-c3ccccc3)nc1-2`, the IC50 in the assay with T47D worked out at 2440 nM; in the assay with HCT-15, 2080 nM; in the assay with DU-145, 1000 nM; in the assay on HeLa, 27400 nM. Further, the inhibition amounted to 8.2% in assay [1], 74.8% in assay [2] and 0% in assay [3].
For `Oc1ccc(-c2cc(-c3cccc(C(F)(F)F)c3)nc3c2Cc2c(O)cccc2-3)cc1`, the IC50 in the assay on T47D worked out at 1230 nM; in the assay on HCT-15 it was 2620 nM; with DU-145 it was 1750 nM; with HeLa, 4570 nM. Besides, the inhibition in assay [1] turned out to be 9.4%; in assay [2], 84.4%; in assay [3] it was 0%.
Turning to `Oc1ccc(-c2cc(-c3ccccc3Cl)c3c(n2)-c2ccc(O)cc2C3)cc1`, the IC50 with T47D is 2700 nM; with HCT-15 it was 4270 nM; with DU-145, 3250 nM; in the assay on HeLa, 4920 nM. For the same compound, the values for the inhibition in assay [1], in assay [2] and in assay [3] were 11.9%, 80% and 7%, respectively.
Consider `Oc1ccccc1-c1cc(-c2ccc(C(F)(F)F)cc2)nc2c1Cc1c(O)cccc1-2`, for which the IC50 with T47D came to 1330 nM; with HCT-15 it was 4540 nM; in the assay with DU-145 it was 3460 nM; in the assay on HeLa it was 6140 nM. For the same compound, the inhibition in assay [1] stood at 0%; in assay [2], 98.9%; in assay [3] it was 2.4%.
For `Oc1ccc(-c2cc(-c3ccccc3Cl)c3c(n2)-c2cc(O)ccc2C3)cc1`, the IC50 with T47D was determined as 1640 nM; in the assay on HCT-15 it was 2910 nM; in the assay with DU-145, 4650 nM; in the assay on HeLa it was 6500 nM. Further, the inhibition in assay [1] was found to be 4%; in assay [2], 74.8%; in assay [3] it was 2%.
Take `Oc1ccccc1-c1cc(-c2ccc(Cl)cc2)nc2c1Cc1cccc(O)c1-2`: the IC50 was 2410 nM in the assay with T47D, 1230 nM in the assay on HCT-15, 550 nM in the assay with DU-145 and 5310 nM in the assay with HeLa. Besides, the inhibition in assay [1] turned out to be 0%; in assay [2], 83.9%; in assay [3] it was 25.3%.
On to `Oc1cccc(-c2cc(-c3cccc(F)c3)nc3c2Cc2ccc(O)cc2-3)c1`, for which the IC50 in the assay on T47D amounted to 540 nM; with HCT-15 it was 1190 nM; in the assay with DU-145, 2170 nM; with HeLa, 3450 nM. Also, the inhibition in assay [1] stood at 17.1%; in assay [2], 44.2%; in assay [3], 4.9%.
For `Oc1ccc(-c2cc(-c3ccccc3Cl)nc3c2Cc2ccc(O)cc2-3)cc1`, the IC50 with T47D was found to be 950 nM; with HCT-15, 3040 nM; in the assay on DU-145, 540 nM; with HeLa it was 3220 nM. The values for the inhibition in assay [1], in assay [2] and in assay [3] were 0%, 80.9% and 19.2%, respectively.
Take `Oc1cccc(-c2cc(-c3ccccc3F)nc3c2Cc2cc(O)ccc2-3)c1`: the IC50 was 2240 nM with T47D, 3580 nM with HCT-15, 1620 nM with DU-145 and 3980 nM in the assay on HeLa. The values for the inhibition in assay [1], in assay [2] and in assay [3] were 9.1%, 44.6% and 4.9%, respectively.
As for `Oc1ccc(-c2cc(-c3cccc(C(F)(F)F)c3)nc3c2Cc2ccc(O)cc2-3)cc1`, the IC50 came to 4690 nM in the assay with T47D, 2770 nM in the assay with HCT-15, 2150 nM in the assay on DU-145 and 3060 nM in the assay with HeLa. Besides, the results for the inhibition in assay [1], in assay [2] and in assay [3] were 8.5%, 87.1% and 11.1%, respectively.
For the compound `Oc1cccc(-c2cc(-c3ccccc3Cl)nc3c2Cc2c(O)cccc2-3)c1`, the IC50 in the assay on T47D worked out at 1530 nM; in the assay on HCT-15, 800 nM; with DU-145, 920 nM; with HeLa, 590 nM. Also, the results for the inhibition in assay [1], in assay [2] and in assay [3] were 0%, 100% and 24.9%, respectively.
`Oc1ccc(-c2cc(-c3ccc(F)cc3)nc3c2Cc2ccc(O)cc2-3)cc1`: the IC50 with T47D was 1140 nM; in the assay on HCT-15, 2540 nM; in the assay on DU-145, 2340 nM; in the assay on HeLa, 2250 nM. Further, the inhibition in assay [1] was found to be 0.9%; in assay [2] it was 47.6%; in assay [3] it was 1.4%.
In the case of `Oc1ccccc1-c1cc(-c2cccc(Cl)c2)nc2c1Cc1cccc(O)c1-2`, the IC50 in the assay on T47D was 960 nM; in the assay on HCT-15, 1310 nM; in the assay with DU-145, 220 nM; in the assay on HeLa, 3620 nM. Besides, the values for the inhibition in assay [1], in assay [2] and in assay [3] were 13.1%, 80% and 3.2%, respectively.
As for `Oc1ccc2c(c1)-c1nc(-c3ccc(C(F)(F)F)cc3)cc(-c3ccccc3O)c1C2`, the IC50 with T47D was 670 nM; with HCT-15, 3250 nM; in the assay on DU-145, 2800 nM; in the assay on HeLa, 2230 nM. Further, the inhibition in assay [1] was determined as 0%; in assay [2], 100%; in assay [3], 3%.
Take `Oc1ccc2c(c1)Cc1c(-c3ccc(Cl)cc3)cc(-c3ccccc3O)nc1-2`: the IC50 in the assay with T47D, in the assay with HCT-15, with DU-145 and with HeLa was over 50000 nM throughout. Besides, the inhibition in assay [1] worked out at 21.4%; in assay [2], 70.8%; in assay [3] it was 0%.
Turning to `Oc1cccc(-c2cc(-c3ccc(Cl)cc3)c3c(n2)-c2ccc(O)cc2C3)c1`, the IC50 in the assay with T47D, in the assay on HCT-15, in the assay with DU-145 and in the assay on HeLa was over 50000 nM each time. The inhibition in assay [1] came out at 2.1%; in assay [2], 74.3%; in assay [3], 6.2%.
As to `Oc1ccc(-c2cc(-c3ccccc3)c3c(n2)-c2c(O)cccc2C3)cc1`, the concentration for half-maximal inhibition (IC50) in the assay on T47D is 11600 nM; with HCT-15, over 50000 nM; with DU-145 it was 660 nM; in the assay with HeLa, 2060 nM. Also, the inhibition in assay [1] turned out to be 1.1%; in assay [2], 3.7%.
